# Tests used:
# TLR7 = TLR7 (Homo sapiens (Human), UniProt Q9NYK1); assay: TLR7 human peripheral blood mononuclear cell (PBMC) cell-based assay (GS-986 as agonist; IL-6 and IFNα readout); conditions: human PBMCs, TLR7 agonist GS-986 at 400 nM, 6 hours, antagonist potency; read-out: TLR-7 EC50
# Summary of the method: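 Human PBMCs (100,000 cells/well) preincubated 1 h at 37 °C with antagonist in 10-point dose response, then stimulated with TLR7 agonist for a further 6 h at 37 °C, 5% CO2. Supernatant IL-6 and IFNα measured by electrochemiluminescence immunoassay.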
# TLR8 = TLR8 (Homo sapiens (Human), UniProt Q9NR97); assay: TLR8 human peripheral blood mononuclear cell (PBMC) cell-based assay (Compound A as agonist; TNFα and IL12p40 readout); conditions: human PBMCs, TLR8 agonist Compound A at 800 nM, 6 hours, antagonist potency; read-out: TLR-8 EC50
# TLR8, sequence (Q9NR97 27-1041): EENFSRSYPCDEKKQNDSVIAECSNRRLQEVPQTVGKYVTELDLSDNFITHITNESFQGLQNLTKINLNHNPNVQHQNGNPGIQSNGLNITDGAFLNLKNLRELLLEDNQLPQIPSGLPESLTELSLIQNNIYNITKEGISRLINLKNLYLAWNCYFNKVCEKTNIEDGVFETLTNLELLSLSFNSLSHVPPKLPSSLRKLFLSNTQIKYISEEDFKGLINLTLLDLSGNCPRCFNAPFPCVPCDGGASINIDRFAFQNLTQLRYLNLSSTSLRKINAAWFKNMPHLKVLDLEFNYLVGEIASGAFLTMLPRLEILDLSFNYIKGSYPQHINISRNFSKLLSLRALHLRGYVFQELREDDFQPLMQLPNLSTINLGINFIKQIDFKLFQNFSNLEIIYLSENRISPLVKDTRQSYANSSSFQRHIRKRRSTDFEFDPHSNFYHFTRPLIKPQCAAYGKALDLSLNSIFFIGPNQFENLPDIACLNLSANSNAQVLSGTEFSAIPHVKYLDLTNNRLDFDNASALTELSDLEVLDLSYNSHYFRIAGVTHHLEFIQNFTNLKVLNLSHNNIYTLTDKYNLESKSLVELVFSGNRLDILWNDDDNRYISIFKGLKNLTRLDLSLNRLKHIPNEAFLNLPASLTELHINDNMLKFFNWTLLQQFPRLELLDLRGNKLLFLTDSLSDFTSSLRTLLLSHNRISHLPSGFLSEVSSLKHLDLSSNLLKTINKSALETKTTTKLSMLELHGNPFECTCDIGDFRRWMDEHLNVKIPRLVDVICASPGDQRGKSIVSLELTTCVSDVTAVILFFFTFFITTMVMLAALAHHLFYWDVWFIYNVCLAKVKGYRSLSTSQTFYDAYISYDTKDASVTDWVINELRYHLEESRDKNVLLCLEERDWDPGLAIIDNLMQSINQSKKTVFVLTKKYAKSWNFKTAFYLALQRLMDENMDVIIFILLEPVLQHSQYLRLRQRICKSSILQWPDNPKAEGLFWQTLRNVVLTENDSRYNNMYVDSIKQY
# TLR7, sequence (Q9NYK1 27-1049): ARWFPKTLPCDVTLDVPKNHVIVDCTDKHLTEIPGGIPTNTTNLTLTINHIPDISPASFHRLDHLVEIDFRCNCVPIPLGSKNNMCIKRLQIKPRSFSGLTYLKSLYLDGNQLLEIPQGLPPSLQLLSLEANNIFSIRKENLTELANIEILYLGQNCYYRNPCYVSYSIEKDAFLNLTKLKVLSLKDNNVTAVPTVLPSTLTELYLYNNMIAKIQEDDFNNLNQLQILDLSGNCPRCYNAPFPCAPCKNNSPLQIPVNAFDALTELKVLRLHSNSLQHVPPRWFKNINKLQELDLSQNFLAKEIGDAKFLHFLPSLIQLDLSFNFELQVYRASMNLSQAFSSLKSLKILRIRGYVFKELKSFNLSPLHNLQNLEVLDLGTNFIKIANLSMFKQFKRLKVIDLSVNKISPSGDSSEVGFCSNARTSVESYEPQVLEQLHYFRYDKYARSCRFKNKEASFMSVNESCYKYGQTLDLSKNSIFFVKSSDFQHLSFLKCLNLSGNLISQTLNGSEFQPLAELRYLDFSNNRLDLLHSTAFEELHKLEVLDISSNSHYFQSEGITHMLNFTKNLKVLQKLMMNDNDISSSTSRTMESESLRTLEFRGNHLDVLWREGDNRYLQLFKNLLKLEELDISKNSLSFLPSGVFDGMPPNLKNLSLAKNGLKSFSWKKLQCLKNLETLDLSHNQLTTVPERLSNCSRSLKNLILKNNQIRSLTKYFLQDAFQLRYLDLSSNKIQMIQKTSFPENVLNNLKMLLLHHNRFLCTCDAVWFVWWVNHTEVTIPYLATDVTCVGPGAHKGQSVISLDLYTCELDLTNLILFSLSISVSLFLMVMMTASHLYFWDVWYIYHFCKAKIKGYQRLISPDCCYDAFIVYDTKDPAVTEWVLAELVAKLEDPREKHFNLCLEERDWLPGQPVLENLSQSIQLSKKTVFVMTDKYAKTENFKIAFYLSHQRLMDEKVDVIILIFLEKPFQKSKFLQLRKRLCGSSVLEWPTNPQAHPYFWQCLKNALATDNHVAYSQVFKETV
SMILES,EC50 (TLR7) [nM],EC50 (TLR8) [nM]
Cc1c(C2CCNC2)sc2[nH]c(-c3cc(C)c4ncnn4c3)c(C(C)C)c12 (centres unmarked) [Example 127],0.21,1.52
Cc1c(C2CCC3(CCNCC3)C2)sc2[nH]c(-c3cc(C)c4ncnn4c3)c(C(C)C)c12 (centres unmarked) [Example 129],0.27,10.7
Cc1nc2c(C)cc(-c3[nH]c4sc(C5CCNCC5)c(C)c4c3C(C)C)cn2n1 [Example 131],0.12,6.92
Cc1cc(-c2[nH]c3sc([C@H]4C[C@]5(CCN(CC(N)=O)C5)C4)c(C)c3c2C(C)C)cn2ncnc12 [Example 132],0.1,0.54
Cc1c(C2CCC3(CCN(CC(N)=O)CC3)C2)sc2[nH]c(-c3cc(C)c4ncnn4c3)c(C(C)C)c12 (centres unmarked) [Example 133],0.6,5.06
Cc1nc2c(C)cc(-c3[nH]c4sc(C5CCN(CC(N)=O)CC5)c(C)c4c3C(C)C)cn2n1 [Example 134],0.74,12.6
Cc1nc2c(C)cc(-c3[nH]c4sc(C5CCN(C(=O)[C@H]6COCCN6)CC5)c(C)c4c3C(C)C)cn2n1 [Example 135],0.28,27
Cc1nc2c(C)cc(-c3[nH]c4sc(C5CCN(C(=O)[C@@H]6COCCN6)CC5)c(C)c4c3C(C)C)cn2n1 [Example 136],0.68,17.9
Cc1c(C2CC3(CCCNC3)C2)sc2[nH]c(-c3cc(C)c4ncnn4c3)c(C(C)C)c12 (centres unmarked) [Example 137],0.73,1.71
Cc1c(C2CC3(CCCN3)C2)sc2[nH]c(-c3cc(C)c4ncnn4c3)c(C(C)C)c12 (centres unmarked) [Example 138],0.19,0.49
Cc1c(-c2[nH]c3sc([C@@H]4C[C@@H]5C[C@H]4CN5CC(N)=O)c(C)c3c2C(C)C)cn2nc(Cl)nc2c1C [Example 139],0.54,0.29
Cc1c(C2CC3(CCCN3CC(N)=O)C2)sc2[nH]c(-c3cc(C)c4ncnn4c3)c(C(C)C)c12 (centres unmarked) [Example 140],0.91,3.45
Cc1cc(-c2[nH]c3sc([C@H]4C[C@@]5(CCCN(CC(N)=O)C5)C4)c(C)c3c2C(C)C)cn2ncnc12 [Example 141],0.42,10.6
Cc1cc(-c2[nH]c3sc([C@H]4C[C@]5(CCCN(CC(N)=O)C5)C4)c(C)c3c2C(C)C)cn2ncnc12 [Example 142],2.31,7.47
Cc1c(-c2[nH]c3sc(C4CCN(C(=O)[C@@H]5C[C@@H]6OCC[C@@H]6N5)CC4)c(C)c3c2C(C)C)cn2ncnc2c1C [Example 143],2.57,10.9
"Cc1c(-c2[nH]c3sc(C4CCC5(CC4)CNCCO5)c(C)c3c2C(C)C)cn2ncnc2c1C (centres unmarked) [Example 144, 9-(5-(7,8-dimethyl-[1,2,4]triazolo[1,5-a]pyridin-6-yl)-4-isopropyl-3-methyl-6H-thieno[2,3-b]pyrrol-2-yl)-1-oxa-4-azaspiro[5.5]undecane]",0.25,2.03
Cc1c([C@H]2C[C@H]3C[C@@H]2CN3CC(N)=O)sc2[nH]c(-c3cc(C)c4ncnn4c3)c(C(C)C)c12 [Example 145],0.09,1.86
Cc1c(-c2[nH]c3sc([C@@H]4C[C@@H]5C[C@H]4CN5C(=O)[C@H]4COCCN4)c(C)c3c2C(C)C)cn2ncnc2c1C [Example 146],0.9,12.8
Cc1c(-c2[nH]c3sc([C@@H]4C[C@@H]5C[C@H]4CN5C(=O)[C@H]4C[C@@H](F)CN4)c(C)c3c2C(C)C)cn2ncnc2c1C [Example 147],0.23,16
Cc1c(-c2[nH]c3sc([C@@H]4C[C@@H]5C[C@H]4CN5C(=O)[C@H]4C[C@H](F)CN4)c(C)c3c2C(C)C)cn2ncnc2c1C [Example 148],0.51,15.9
Cc1c(-c2[nH]c3sc([C@@H]4C[C@@H]5C[C@H]4CN5C(=O)[C@@H]4C[C@H](F)CN4)c(C)c3c2C(C)C)cn2ncnc2c1C [Example 149],0.72,9.53
Cc1c(-c2[nH]c3sc([C@@H]4C[C@@H]5C[C@H]4CN5C(=O)[C@@H]4C[C@@H](F)CN4)c(C)c3c2C(C)C)cn2ncnc2c1C [Example 150],1.64,14.2
"Cc1c(-c2[nH]c3sc(C4CC(C(=O)N5CCNCC5)C4)c(C)c3c2C(C)C)cn2ncnc2c1C (centres unmarked) [Example 151, (3-(5-(7,8-dimethyl-[1,2,4]triazolo[1,5-a]pyridin-6-yl)-4-isopropyl-3-methyl-6H-thieno[2,3-b]pyrrol-2-yl)cyclobutyl)(piperazin-1-yl)methanone]",0.26,0.99
Cc1c(-c2[nH]c3sc([C@@H]4C[C@@H]5C[C@H]4CN5Cc4n[nH]c(=O)[nH]4)c(C)c3c2C(C)C)cn2ncnc2c1C [Example 152],0.42,2.86
Cc1c(-c2[nH]c3sc([C@@H]4C[C@@H]5C[C@H]4CN5C4(CC#N)CN(S(C)(=O)=O)C4)c(C)c3c2C(C)C)cn2ncnc2c1C [Example 153],0.77,23.2

SMILES,EC50 (TLR7) [nM],EC50 (TLR8) [nM]
Cc1c(-c2[nH]c3sc([C@@H]4C[C@@H]5C[C@H]4CN5Cc4ccc(Br)cc4)c(C)c3c2C(C)C)cn2ncnc2c1C [Example 154],0.44,0.85
Cc1c(-c2[nH]c3sc([C@@H]4C[C@@H]5C[C@H]4CN5CC(=O)N=S(C)(C)=O)c(C)c3c2C(C)C)cn2ncnc2c1C [Example 155],< 0.05,0.51
Cc1c(C2CCN(S(=O)(=O)N3CCNCC3)CC2)sc2[nH]c(-c3cc(C)c4ncnn4c3)c(C(C)C)c12 [Example 156],< 0.05,9.8
Cc1c(C2CCN(S(=O)(=O)N3CCN(C)CC3)CC2)sc2[nH]c(-c3cc(C)c4ncnn4c3)c(C(C)C)c12 [Example 157],0.17,29.6
Cc1c(C2CCN(C(=O)[C@H]3COC(C)(C)CN3)CC2)sc2[nH]c(-c3cc(C)c4ncnn4c3)c(C(C)C)c12 [Example 158],0.15,61.8
Cc1c(C2CCN(C(=O)[C@@H]3COC(C)(C)CN3)CC2)sc2[nH]c(-c3cc(C)c4ncnn4c3)c(C(C)C)c12 [Example 159],0.94,31.5
COCc1c(C2CCN(CC(N)=O)CC2)sc2[nH]c(-c3cc(C)c4ncnn4c3)c(C(C)C)c12 [Example 160],0.26,6.51
"Cc1c(C2CCCN(CC(N)=O)CC2)sc2[nH]c(-c3cc(C)c4ncnn4c3)c(C(C)C)c12 (centres unmarked) [Example 161, 2-(4-(4-isopropyl-3-methyl-5-(8-methyl-[1,2,4]triazolo[1,5-a]pyridin-6-yl)-6H-thieno[2,3-b]pyrrol-2-yl)azepan-1-yl)acetamide]",0.13,7.29
Cc1cc(-c2[nH]c3sc(C4CCN(CC(N)=O)CC4)c(C(F)F)c3c2C(C)C)cn2ncnc12 [Example 162],3.41,24.3
Cc1c(-c2[nH]c3sc([C@@H]4C[C@@H]5C[C@H]4CN5CC(=O)N(C)C)c(C)c3c2C(C)C)cn2ncnc2c1C [Example 163],0.3,0.38
Cc1c(-c2[nH]c3sc([C@@H]4C[C@@H]5C[C@H]4CN5CCCS(C)(=O)=O)c(C)c3c2C(C)C)cn2ncnc2c1C [Example 164],0.23,< 0.05
Cc1c(-c2[nH]c3sc([C@@H]4C[C@@H]5C[C@H]4CN5CC#N)c(C)c3c2C(C)C)cn2ncnc2c1C [Example 165],0.13,0.41
Cc1c(-c2[nH]c3sc([C@@H]4C[C@@H]5C[C@H]4CN5CCC#N)c(C)c3c2C(C)C)cn2ncnc2c1C [Example 166],1.2,0.48
Cc1c(-c2[nH]c3sc([C@@H]4C[C@@H]5C[C@H]4CN5C4COC4)c(C)c3c2C(C)C)cn2ncnc2c1C [Example 167],0.09,0.45
Cc1c(-c2[nH]c3sc([C@@H]4C[C@@H]5C[C@H]4CN5C4CCS(=O)(=O)CC4)c(C)c3c2C(C)C)cn2ncnc2c1C [Example 168],0.74,0.96
Cc1c(-c2[nH]c3sc([C@@H]4C[C@@H]5C[C@H]4CN5C4CC5(C4)CS(=O)(=O)C5)c(C)c3c2C(C)C)cn2ncnc2c1C [Example 169],0.29,0.07
Cc1c(-c2[nH]c3sc([C@@H]4C[C@@H]5C[C@H]4CN5Cc4cccc(=O)[nH]4)c(C)c3c2C(C)C)cn2ncnc2c1C [Example 170],< 0.05,0.26
Cc1c(-c2[nH]c3sc([C@@H]4C[C@@H]5C[C@H]4CN5Cc4ccc[nH]c4=O)c(C)c3c2C(C)C)cn2ncnc2c1C [Example 171],< 0.05,0.06
Cc1c(-c2[nH]c3sc([C@@H]4C[C@@H]5C[C@H]4CN5Cc4cccn(C(F)F)c4=O)c(C)c3c2C(C)C)cn2ncnc2c1C [Example 172],3.03,0.82
Cc1c(-c2[nH]c3sc([C@@H]4C[C@@H]5C[C@H]4CN5CC4(F)COC4)c(C)c3c2C(C)C)cn2ncnc2c1C [Example 173],0.15,1.06
Cc1c(-c2[nH]c3sc([C@@H]4C[C@@H]5C[C@H]4CN5Cc4c[nH]nn4)c(C)c3c2C(C)C)cn2ncnc2c1C [Example 174],< 0.05,0.09
Cc1c(-c2[nH]c3sc([C@@H]4C[C@@H]5C[C@H]4CN5Cc4nnc[nH]4)c(C)c3c2C(C)C)cn2ncnc2c1C [Example 176],0.08,0.12
Cc1c(-c2[nH]c3sc([C@@H]4C[C@@H]5C[C@H]4CN5Cc4cc[nH]c(=O)c4)c(C)c3c2C(C)C)cn2ncnc2c1C [Example 177],0.5,0.07
Cc1c(-c2[nH]c3sc([C@@H]4C[C@@H]5C[C@H]4CN5Cc4ccc(=O)[nH]c4)c(C)c3c2C(C)C)cn2ncnc2c1C [Example 178],0.06,0.16

# Reference: patent US11661431B2, “Thienopyrrole compounds” (Gilead Sciences, Inc., priority 2021, dated 2023)
